# According to patent US20110166221A1, “USE OF DRONEDARONE FOR THE PREPARATION OF A MEDICAMENT FOR USE IN THE PREVENTION OF CARDIOVERSION” (SANOFI-AVENTIS, priority 2008, published 2011):
# Structures can show the parent of a compound that is named as a salt.
# Tested on: patients with a history of atrial fibrillation or atrial flutter
# Experiment: prospective, multinational, double-blind, randomized, multi-center, placebo-controlled, parallel group trial for the prevention of cardioversion
# Type: in vivo, human
# Experimental: Efficacy of dronedarone and its pharmaceutically acceptable salts versus placebo for the prevention of cardioversion was provided via dronedarone hydrochloride during a prospective, multinational, double-blind, randomized, multi-center, placebo-controlled, parallel group trial.
# Patients must have a history of atrial fibrillation or atrial flutter and/or may be in normal sinus rhythm or in atrial fibrillation or flutter at the time of recruitment.
# Recruitment of patients was conducted taking into account the following inclusion criteria:
# • 1) One of the following risk factors had to be present: • age equal to or greater than 70 years, • hypertension (taking antihypertensives of at least two different classes), • diabetes, • history of cerebral stroke (transient ischemic event or completed cerebral stroke) or of systemic embolism, • left atrial diameter greater than or equal to 50 mm measured by echocardiography, • left ventricular ejection fraction less than 40%, measured by two-dimensional echography; • or • age equal to or above 70, or even above 75, possibly combined with at least one of the risk factors below: • hypertension (taking antihypertensives of at least two different classes), • diabetes, • history of cerebral stroke (transient ischemic event or completed cerebral stroke) or of systemic embolism, • left atrial diameter greater than or equal to 50 mm measured by echocardiography, • left ventricular ejection fraction less than 40%, measured by two-dimensional echography; • 2) availability of one electrocardiogram within the last six months, showing that the patients was or is in atrial fibrillation/flutter, • 3) availability of one electrocardiogram within the last six months, showing that the patients was or is in sinus rhythm.
# Study drug treatment units (placebo or dronedarone hydrochloride corresponding to 400 mg of base) were such that each patient took one tablet in the morning during or shortly after breakfast and one tablet in the evening during or shortly after dinner.
# The treatment duration depended on the time of recruitment of each patient in the trial and could be comprised from 12 months to 30 months.
# Results were calculated using non-parametric Kaplan-Meier estimate.
# Cox's proportional hazard model was used to estimate the hazard ratio also called relative risk.
# Relative risk (RR) is the ratio between the risk of having a cardioversion for patients treated with dronedarone and the risk of having a cardioversion for patients treated with placebo.
# Percentage of decrease of an event is calculated as follow: […]
smiles,measurement,setting,value
"CCCCc1oc2ccc(NS(C)(=O)=O)cc2c1C(=O)c1ccc(OCCCN(CCCC)CCCC)cc1 [dronedarone hydrochloride, 2-n-butyl-3-[4-(3-di-n-butylaminopropoxy)benzoyl]-5-methylsulfonamido-benzofuran]",events (cardioversion) registered,"2301 of 4628 patients treated, 400 mg of base twice a day with meals, 12 to 30 months, placebo group 481 events",339
same,Calculated relative risk (hazard ratio) of having a cardioversion versus placebo,"Cox's proportional hazard model, 400 mg of base twice a day, 12 to 30 months, p<0.001",0.68
same,"time course of effect, Kaplan Meier cumulative incidence from randomization to first cardioversion (FIG. 1)",on-study period 12-30 months,occurred early and increased over time
same,decrease of electrical cardioversion,"x=1-RR versus placebo, p<0.001",32%
